Our source for the IC50 values is patent US9249163B2, “PDE10a inhibitors for the treatment of type II diabetes” (Janssen Pharmaceutica, NV, priority 2013, dated 2016).

The target of assay [1] is Rat recombinant PDE10a (rPDE10a) (Rattus norvegicus (Rat), UniProt Q9QYJ6). Nature of the assay: In vitro assay PDE10a (rat recombinant PDE10a, SPA). The assay is classed as biochemical. The following applies: 60 nM cAMP, 60 min at rt, read-out: rPDE10a2 IC50. Here is the method:
Rat recombinant PDE10a (rPDE10a) was expressed in Sf9 cells using a recombinant rPDE10a baculovirus construct. Cells were harvested after 48 h of infection and the rPDE10a protein was purified by metal chelate chromatography on Ni-sepharose 6FF. Tested compounds were dissolved and diluted in 100% DMSO to a concentration 100 fold of the final concentration in the assay. Compound dilutions (0.4 μL) were added in 384 well plates to 20 μL of incubation buffer (50 mM Tris pH 7.8, 8.3 mM MgCl2, 1.7 mM EGTA). 10 μL of rPDE10a enzyme in incubation buffer was added and the reaction was started by addition of 10 μL substrate to a final concentration of 60 nM cAMP and 0.008 μCi ^3H-cAMP. The reaction was incubated for 60 min at rt. After incubation, the reaction was stopped with 20 μL of 17.8 mg/mL PDE SPA beads. After sedimentation of the beads during 30 min the radioactivity was measured in a Perkin Elmer Topcount scintillation counter and results were expressed as cpm. For blank values the enzyme was omitted from the reaction and replaced by incubation buffer. Control values were obtained by addition of a final concentration of 1% DMSO instead of compound.

Assay [2] addresses Human recombinant PDE10A2 (Homo sapiens (Human), UniProt Q9Y233). Nature of the assay: In vitro hPDE10a (human recombinant PDE10A2, scintillation proximity assay). The assay is classed as biochemical. The settings on record: human recombinant PDE10A2, 60 nM cAMP, 60 min at room temperature; read-out: hPDE10a2 IC50. How it is done:
Human recombinant PDE10A2 was expressed in Sf9 cells, using a recombinant baculovirus construct containing the full length sequence containing a 6×His sequence following the start Met to allow metal affinity purification of the recombinant protein. Cells were harvested and the phosphodiesterase protein was purified by metal chelate chromatography on Ni-sepharose 6FF.
The affinity of the compounds of Formula (I) for phophodiesterases (PDE) was measured by a scintillation proximity assay (SPA). PDE Yttrium Silicate SPA beads allow PDE activity to be measured by direct binding of the primary phosphate groups of non-cyclic AMP or GMP to the beads via a complex iron chelation mechanism. The amount of bound tritiated product ([^3H]-AMP) is measured by liquid scintillation counting.
The compounds were dissolved and diluted in 100% DMSO in polystyrene plates to a concentration of 100-fold the final concentration in the assay. Human PDE10A enzyme solution (10 μL) was added to 20 μL, of incubation buffer (50 mM Tris pH 7.8, 8.3 mM MgCl2, 1.7 mM EGTA), 10 μL, substrate solution consisting of a mixture of non-tritiated and tritiated substrate (60 nM cAMP, 0.008 μCi ^3H-cAMP), and 0.4 μL, compound in 100% DMSO in a 384-well plate, and incubated for 60 min at room temperature. After incubation, the reaction was stopped with 20 μL, of stop solution, consisting of PDE SPA beads (17.8 mg beads/mL in 18 mM zinc sulphate). After sedimentation of the beads for 30 min, the radioactivity was measured in a Perkin Elmer Topcount scintillation counter and results were expressed as cpm. To measure the low control, no enzyme was added to the reaction mixture.
Data were calculated as the percentage of inhibition of total activity measured in the absence of test compound (% control).
Background: SPA uses beads or plates that emit light when radiolabelled molecules are held near them.

Molecules are shown by their SMILES. Structures can show the parent of a compound that is named as a salt.

Human recombinant PDE10A2, sequence (Q9Y233 267-1055): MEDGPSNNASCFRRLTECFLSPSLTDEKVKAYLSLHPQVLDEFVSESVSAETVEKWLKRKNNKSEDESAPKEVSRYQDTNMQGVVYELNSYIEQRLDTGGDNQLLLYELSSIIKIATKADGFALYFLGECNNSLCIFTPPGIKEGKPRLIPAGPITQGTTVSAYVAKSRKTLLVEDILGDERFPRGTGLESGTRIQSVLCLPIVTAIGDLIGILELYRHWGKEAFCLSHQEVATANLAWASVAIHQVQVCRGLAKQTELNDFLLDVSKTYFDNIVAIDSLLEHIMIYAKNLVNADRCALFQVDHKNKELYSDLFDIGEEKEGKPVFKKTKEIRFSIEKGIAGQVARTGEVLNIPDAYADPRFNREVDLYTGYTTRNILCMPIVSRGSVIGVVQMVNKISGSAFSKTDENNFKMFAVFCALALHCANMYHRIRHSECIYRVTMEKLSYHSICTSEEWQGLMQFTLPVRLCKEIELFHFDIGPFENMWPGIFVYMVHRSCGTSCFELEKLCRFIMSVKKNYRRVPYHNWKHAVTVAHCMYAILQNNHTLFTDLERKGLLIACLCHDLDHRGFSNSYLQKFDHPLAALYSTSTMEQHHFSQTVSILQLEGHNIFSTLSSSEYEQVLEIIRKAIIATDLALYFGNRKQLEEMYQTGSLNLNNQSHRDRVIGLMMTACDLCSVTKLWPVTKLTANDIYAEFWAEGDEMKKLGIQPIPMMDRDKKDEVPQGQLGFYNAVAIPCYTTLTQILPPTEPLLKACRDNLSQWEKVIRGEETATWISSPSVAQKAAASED
Rat recombinant PDE10a (rPDE10a), sequence (Q9QYJ6 whole entry): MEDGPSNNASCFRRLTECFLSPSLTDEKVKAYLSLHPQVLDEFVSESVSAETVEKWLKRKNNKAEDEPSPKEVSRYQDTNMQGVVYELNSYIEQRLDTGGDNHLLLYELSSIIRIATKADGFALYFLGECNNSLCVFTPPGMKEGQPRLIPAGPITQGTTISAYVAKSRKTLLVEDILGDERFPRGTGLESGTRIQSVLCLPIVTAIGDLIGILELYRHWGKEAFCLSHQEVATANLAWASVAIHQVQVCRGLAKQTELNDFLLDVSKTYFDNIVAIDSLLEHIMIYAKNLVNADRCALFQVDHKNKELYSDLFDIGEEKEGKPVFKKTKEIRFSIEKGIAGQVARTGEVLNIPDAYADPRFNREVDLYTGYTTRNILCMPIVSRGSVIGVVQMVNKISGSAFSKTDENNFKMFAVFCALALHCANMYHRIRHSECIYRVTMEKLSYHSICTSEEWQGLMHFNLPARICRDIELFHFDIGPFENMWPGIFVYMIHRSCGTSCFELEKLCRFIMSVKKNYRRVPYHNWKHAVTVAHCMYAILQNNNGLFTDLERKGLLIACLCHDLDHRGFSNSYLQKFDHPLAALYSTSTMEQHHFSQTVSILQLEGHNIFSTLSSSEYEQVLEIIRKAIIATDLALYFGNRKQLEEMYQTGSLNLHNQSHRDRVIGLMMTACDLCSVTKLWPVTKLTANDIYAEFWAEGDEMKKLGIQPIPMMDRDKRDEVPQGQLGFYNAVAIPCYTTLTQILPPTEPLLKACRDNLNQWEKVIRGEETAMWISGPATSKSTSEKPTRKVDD

Consider `c1ccc2nc(OCc3cn4c(-c5ccc(Sc6nnc[nH]6)nc5)cnc(N5CCOCC5)c4n3)ccc2c1` [Cpd 100, 4-(5-(6-((4H-1,2,4-triazol-3-yl)thio)pyridin-3-yl)-2-((quinolin-2-yloxy)methyl)imidazo[1,2-a]pyrazin-8-yl)morpholine], for which the IC50 (as a rule, the concentration at which inhibition is half-maximal) in assay [1] is 38 nM; in assay [2] it was 29 nM.

Take `O=C(O)CCNC(=O)c1ccc(-c2cnc(N3CCOCC3)c3nc(/C=C/c4ccc5ccccc5n4)cn23)cc1` [Cpd 39, (E)-3-(4-(8-Morpholino-2-(2-(quinolin-2-yl)vinyl)imidazo[1,2-a]pyrazin-5-yl)benzamido)propanoic acid]: the IC50 in assay [1] is 8 nM; in assay [2], 5 nM.

Take `COc1cc(-c2ncc(-c3ccc(N4CCNCC4)nc3)n3cc(COc4ccc5ccccc5n4)nc23)ccn1` [Cpd 82]: the figures for the concentration for half-maximal inhibition (IC50) in assay [1] and in assay [2] were 245 nM and 282 nM, respectively.

As to `CN1c2cc(-c3cnc(N4CCOCC4)c4nc(/C=C/c5ccc6ccccc6n5)cn34)ccc2NS1(=O)=O` [Cpd 43, (E)-1-Methyl-6-(8-morpholino-2-(2-(quinolin-2-yl)vinyl)imidazo[1,2-a]pyrazin-5-yl)-1,3-dihydrobenzo[c][1,2,5]thiadiazole 2,2-dioxide trifluoroacetic acid salt], the IC50 in assay [1] is 7 nM; in assay [2], 3 nM.

Take `O=C(O)CNc1ccc(-c2cnc(N3CCOCC3)c3nc(/C=C/c4ccc5ccccc5n4)cn23)cn1` [Cpd 66, (E)-2-(5-(8-Morpholino-2-(2-(quinolin-2-yl)vinyl)imidazo[1,2-a]pyrazin-5-yl)pyridin-2-ylamino)acetic acid trifluoroacetic acid salt]: the IC50 in assay [1] amounted to 3 nM; in assay [2] it was 2 nM.

Turning to `O=C(O)CNc1ccc(-c2cnc(N3CCOCC3)c3nc(/C=C/c4ccc5ccccc5n4)cn23)cc1` [Cpd 29, (E)-2-(4-(8-Morpholino-2-(2-(quinolin-2-yl)vinyl)imidazo[1,2-a]pyrazin-5-yl)phenylamino)acetic acid trifluoroacetic acid salt], the results for the IC50 in assay [1] and in assay [2] were 15 nM and 24 nM, respectively.

Turning to `O=S(=O)(NCCO)c1ccc(-c2cnc(N3CCOCC3)c3nc(/C=C/c4ccc5ccccc5n4)cn23)cc1` [Cpd 73, (E)-N-(2-Hydroxyethyl)-4-(8-morpholino-2-(2-(quinolin-2-yl)vinyl)imidazo[1,2-a]pyrazin-5-yl)benzenesulfonamide], the concentration for half-maximal inhibition (IC50) in assay [1] is 40 nM; in assay [2], 26 nM.

For the molecule `Oc1nc2ncc(-c3cnc(N4CCOCC4)c4nc(/C=C/c5ccc6ccccc6n5)cn34)cc2[nH]1` [Cpd 94, (E)-6-(8-Morpholino-2-(2-(quinolin-2-yl)vinyl)imidazo[1,2-a]pyrazin-5-yl)-3H-imidazo[4,5-b]pyridin-2-ol], the IC50 in assay [1] is 3 nM; in assay [2], 8 nM.

For the molecule `CC(C)[C@H](NC(=O)c1ccc(-c2cnc(N3CCOCC3)c3nc(/C=C/c4ccc5ccccc5n4)cn23)cc1)C(=O)O` [Cpd 44, (S,E)-3-Methyl-2-(4-(8-morpholino-2-(2-(quinolin-2-yl)vinyl)imidazo[1,2-a]pyrazin-5-yl)benzamido)butanoic acid trifluoroacetic acid salt], the IC50 in assay [1] was found to be 9 nM; in assay [2] it was 14 nM.

For `C(=C\c1cn2c(-c3ccc(N4CCNCC4)nc3)cnc(N3CCOCC3)c2n1)/c1ccc2ccccc2n1` [Cpd 105, (E)-4-(5-(6-(piperazin-1-yl)pyridin-3-yl)-2-(2-(quinolin-2-yl)vinyl)imidazo[1,2-a]pyrazin-8-yl)morpholine trifluoroacetic acid salt], the IC50 in assay [1] was 22 nM; in assay [2], 50 nM.

With `COCCOCCOc1ccc(-c2cnc(N3CCOCC3)c3nc(CCc4ccc5ccccc5n4)cn23)cc1` [Cpd 31, 4-(5-(4-(2-(2-Methoxyethoxy)ethoxy)phenyl)-2-(2-(quinolin-2-yl)ethyl)imidazo[1,2-a]pyrazin-8-yl)morpholine], the IC50 in assay [1] was 115 nM; in assay [2], 1 nM.

In the case of `CN1C(=O)N(C)S(=O)(=O)c2cc(-c3cnc(N4CCOCC4)c4nc(/C=C/c5ccc6ccccc6n5)cn34)ccc21` [Cpd 20, (E)-2,4-Dimethyl-7-(8-morpholino-2-(2-(quinolin-2-yl)vinyl)imidazo[1,2-a]pyrazin-5-yl)-2H-benzo[e][1,2,4]thiadiazin-3(4H)-one 1,1-dioxide], the results for the half-inhibitory concentration (IC50) in assay [1] and in assay [2] were 26 nM and 8 nM, respectively.

On to `CS(=O)(=O)NC(=O)Nc1ccc(-c2cnc(N3CCOCC3)c3nc(CCc4ccc5ccccc5n4)cn23)cc1` [Cpd 40, N-((4-(8-Morpholino-2-(2-(quinolin-2-yl)ethyl)imidazo[1,2-a]pyrazin-5-yl)phenyl)carbamoyl)methanesulfonamide], for which the concentration for half-maximal inhibition (IC50) in assay [1] came out at 20 nM; in assay [2] it was 10 nM.

Regarding `O=C1NS(=O)(=O)c2ccc(-c3cnc(N4CCOCC4)c4nc(/C=C/c5ccc6ccccc6n5)cn34)cc21` [Cpd 42, (E)-5-(8-Morpholino-2-(2-(quinolin-2-yl)vinyl)imidazo[1,2-a]pyrazin-5-yl)benzo[d]isothiazol-3(2H)-one 1,1-dioxide], the IC50 turned out to be 2 nM in assay [1] and 1 nM in assay [2].

On to `CC(C)[C@H](Nc1ccc(-c2cnc(N3CCOCC3)c3nc(/C=C/c4ccc5ccccc5n4)cn23)cc1)C(=O)O` [Cpd 15, (S,E)-3-Methyl-2-(4-(8-morpholino-2-(2-(quinolin-2-yl)vinyl)imidazo[1,2-a]pyrazin-5-yl)phenylamino)butanoic acid trifluoroacetic acid salt], for which the half-inhibitory concentration (IC50) in assay [1] stood at 51 nM; in assay [2], 30 nM.

Regarding `c1ccc2nc(CCc3cn4c(-c5ccc(Sc6cnn[nH]6)cc5)cnc(N5CCOCC5)c4n3)ccc2c1` [Cpd 36, 4-(5-(4-((1H-1,2,3-triazol-5-yl)thio)phenyl)-2-(2-(quinolin-2-yl)ethyl)imidazo[1,2-a]pyrazin-8-yl)morpholine], the IC50 in assay [1] worked out at 23 nM; in assay [2], 17 nM.

With `c1ccc2nc(CCc3cn4c(-c5ccc(-c6nnn[nH]6)nc5)cnc(N5CCOCC5)c4n3)ccc2c1` [Cpd 77, 4-(5-(6-(1H-Tetrazol-5-yl)pyridin-3-yl)-2-(2-(quinolin-2-yl)ethyl)imidazo[1,2-a]pyrazin-8-yl)morpholine], the results for the IC50 in assay [1] and in assay [2] were below 30 nM and 1 nM, respectively.

As for `CN1CCN(c2ncc(-c3cnc(N4CCOCC4)c4nc(COc5ccc6ccccc6n5)cn34)cn2)CC1` [Cpd 123, 4-(5-(2-(4-Methylpiperazin-1-yl)pyrimidin-5-yl)-2-((quinolin-2-yloxy)methyl)imidazo[1,2-a]pyrazin-8-yl)morpholine methane sulfonic acid salt], the 50% inhibitory concentration (IC50) in assay [1] was 8 nM; in assay [2], 19 nM.

Regarding `O=c1ncn(-c2ccc(-c3cnc(N4CCOCC4)c4nc(/C=C/c5ccc6ccccc6n5)cn34)cc2)[nH]1` [Cpd 56, (E)-1-(4-(8-Morpholino-2-(2-(quinolin-2-yl)vinyl)imidazo[1,2-a]pyrazin-5-yl)phenyl)-1,2-dihydro-1,2,4-triazol-3-one], the IC50 in assay [1] was 15 nM; in assay [2], 14 nM.

On to `O=C(Nc1ccc(-c2cnc(N3CCOCC3)c3nc(/C=C/c4ccc5ccccc5n4)cn23)cc1)N(CCO)CCO` [Cpd 71, (E)-1,1-bis(2-hydroxyethyl)-3-(4-(8-morpholino-2-(2-(quinolin-2-yl)vinyl)imidazo[1,2-a]pyrazin-5-yl)phenyl)urea], for which the IC50 in assay [1] is 63 nM; in assay [2] it was 44 nM.

With `c1ccc2nc(OCc3cn4c(-c5ccc(N6CCNCC6)nc5)cnc(-c5ccncc5)c4n3)ccc2c1` [Cpd 120, 2-((5-(6-(Piperazin-1-yl)pyridin-3-yl)-8-(pyridin-4-yl)imidazo[1,2-a]pyrazin-2-yl)methoxy)quinoline trifluoroacetic acid salt], the IC50 in assay [1] came to 15 nM; in assay [2], 20 nM.

With `c1ccc2nc(CCc3cn4c(-c5ccc(-c6nnc[nH]6)nc5)cnc(N5CCOCC5)c4n3)ccc2c1` [Cpd 67, 4-(5-(6-(4H-1,2,4-Triazol-3-yl)pyridin-3-yl)-2-(2-(quinolin-2-yl)ethyl)imidazo[1,2-a]pyrazin-8-yl)morpholine], the concentration for half-maximal inhibition (IC50) is 4 nM in assay [1] and 5 nM in assay [2].
